In PMC10004634 (PLOS ONE, 2023):

Key:
Assay in all cases: biochemical
Parameters in all cases: KINOMEscan scanMAX competition binding, DNA-tagged kinases, qPCR read-out, percent control at 300 nM
PKN2 = PKN2 (Homo sapiens, UniProt Q16513); settings: read-out: Percent control / Acalabrutinib
SIK2 = SIK2 (Homo sapiens, UniProt Q9H0K1); settings: read-out: Percent control / Acalabrutinib
TAOK2 = TAOK2 (Homo sapiens, UniProt Q9UL54); settings: read-out: Percent control / Acalabrutinib
YANK3 = target: T1, YANK3 (Homo sapiens, UniProt Q86UX6); settings: read-out: Percent control / Acalabrutinib
T1 construct: gene STK32C

[1] = target: T2, ABL1(F317I)-phosphorylated (Homo sapiens, UniProt P00519, F317I); settings: read-out: Percent control / Acalabrutinib
T2 construct: phosphorylated

CSNK1A1 = CSNK1A1 (Homo sapiens, UniProt P48729); settings: read-out: Percent control / Acalabrutinib
PIK3CG = PIK3CG (Homo sapiens, UniProt P48736); settings: read-out: Percent control / Acalabrutinib
HIPK1 = HIPK1 (Homo sapiens, UniProt Q86Z02); settings: read-out: Percent control / Acalabrutinib
MYO3B = MYO3B (Homo sapiens, UniProt Q8WXR4); settings: read-out: Percent control / Ibrutinib
PRKG1 = PRKG1 (Homo sapiens, UniProt Q13976); settings: read-out: Percent control / Tirabrutinib
CDK5 = CDK5 (Homo sapiens, UniProt Q00535); settings: read-out: Percent control / Zanubrutinib
IKK-alpha = target: T3, IKK-alpha (Homo sapiens, UniProt O15111); settings: read-out: Percent control / Zanubrutinib
T3 construct: gene CHUK

PRKG2 = PRKG2 (Homo sapiens, UniProt Q13237); settings: read-out: Percent control / Zanubrutinib
NEK6 = NEK6 (Homo sapiens, UniProt Q9HC98); settings: read-out: Percent control / Zanubrutinib
CDK4-cyclinD1 = target: T4, CDK4-cyclinD1 (Homo sapiens, UniProt P11802); settings: read-out: Percent control / Zanubrutinib
T4 construct: cyclinD1

[2] = target: T5, ABL1(M351T)-phosphorylated (Homo sapiens, UniProt P00519, M351T); settings: read-out: Percent control / Zanubrutinib
T5 construct: phosphorylated

PAK2 = PAK2 (Homo sapiens, UniProt Q13177); settings: read-out: Percent control / Zanubrutinib
CDC2L5 = target: T6, CDC2L5 (Homo sapiens, UniProt Q14004); settings: read-out: Percent control / Zanubrutinib
T6 construct: gene CDK13

CSNK2A2 = CSNK2A2 (Homo sapiens, UniProt P19784); settings: read-out: Percent control / Zanubrutinib
ULK2 = ULK2 (Homo sapiens, UniProt Q8IYT8); settings: read-out: Percent control / Zanubrutinib
S6K1 = target: T7, S6K1 (Homo sapiens, UniProt P23443); settings: read-out: Percent control / Zanubrutinib
T7 construct: gene RPS6KB1

PIM3 = PIM3 (Homo sapiens, UniProt Q86V86); settings: read-out: Percent control / Zanubrutinib
SIK = target: T8, SIK (Homo sapiens, UniProt P57059); settings: read-out: Percent control / Zanubrutinib
T8 construct: gene SIK1

T6 sequence (Q14004 whole entry): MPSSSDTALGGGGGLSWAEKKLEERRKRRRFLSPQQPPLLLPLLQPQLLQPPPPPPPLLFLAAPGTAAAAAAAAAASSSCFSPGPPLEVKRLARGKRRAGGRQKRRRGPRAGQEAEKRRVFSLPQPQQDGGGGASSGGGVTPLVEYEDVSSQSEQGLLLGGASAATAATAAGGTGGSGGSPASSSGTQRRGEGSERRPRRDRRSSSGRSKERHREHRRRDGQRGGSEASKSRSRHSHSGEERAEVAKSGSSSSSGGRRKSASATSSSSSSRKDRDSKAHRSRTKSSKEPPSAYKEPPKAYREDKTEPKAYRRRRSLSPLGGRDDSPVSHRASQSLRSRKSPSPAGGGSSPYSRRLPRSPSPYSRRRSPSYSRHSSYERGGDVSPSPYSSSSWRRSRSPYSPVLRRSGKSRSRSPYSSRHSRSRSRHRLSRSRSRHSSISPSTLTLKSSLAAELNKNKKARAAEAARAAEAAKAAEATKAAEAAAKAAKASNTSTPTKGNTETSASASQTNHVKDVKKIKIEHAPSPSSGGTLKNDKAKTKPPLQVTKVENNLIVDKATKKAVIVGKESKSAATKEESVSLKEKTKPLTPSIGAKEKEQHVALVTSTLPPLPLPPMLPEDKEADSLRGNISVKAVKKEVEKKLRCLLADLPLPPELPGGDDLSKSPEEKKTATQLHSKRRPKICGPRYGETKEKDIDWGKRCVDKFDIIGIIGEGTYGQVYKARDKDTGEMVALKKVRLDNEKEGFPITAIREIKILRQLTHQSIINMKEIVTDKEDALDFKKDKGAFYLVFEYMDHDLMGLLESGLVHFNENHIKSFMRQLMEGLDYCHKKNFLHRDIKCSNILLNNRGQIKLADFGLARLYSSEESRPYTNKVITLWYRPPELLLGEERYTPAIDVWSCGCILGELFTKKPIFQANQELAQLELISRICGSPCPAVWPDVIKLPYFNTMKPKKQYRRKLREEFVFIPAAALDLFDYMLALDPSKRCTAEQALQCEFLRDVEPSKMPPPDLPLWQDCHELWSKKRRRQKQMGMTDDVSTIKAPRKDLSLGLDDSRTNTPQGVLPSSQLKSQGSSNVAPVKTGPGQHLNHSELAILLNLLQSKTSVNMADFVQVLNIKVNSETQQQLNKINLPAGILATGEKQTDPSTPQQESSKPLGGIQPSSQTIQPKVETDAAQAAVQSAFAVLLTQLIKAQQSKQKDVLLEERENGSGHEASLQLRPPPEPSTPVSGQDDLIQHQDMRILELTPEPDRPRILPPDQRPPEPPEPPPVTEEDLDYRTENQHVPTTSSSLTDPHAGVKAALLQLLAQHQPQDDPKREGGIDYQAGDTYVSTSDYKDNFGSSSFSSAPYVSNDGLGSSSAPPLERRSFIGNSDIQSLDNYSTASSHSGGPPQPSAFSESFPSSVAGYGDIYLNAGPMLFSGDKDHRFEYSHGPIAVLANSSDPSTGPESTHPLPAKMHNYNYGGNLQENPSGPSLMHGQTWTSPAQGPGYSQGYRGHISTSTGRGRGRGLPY
Sequence of PAK2 (Q13177 whole entry): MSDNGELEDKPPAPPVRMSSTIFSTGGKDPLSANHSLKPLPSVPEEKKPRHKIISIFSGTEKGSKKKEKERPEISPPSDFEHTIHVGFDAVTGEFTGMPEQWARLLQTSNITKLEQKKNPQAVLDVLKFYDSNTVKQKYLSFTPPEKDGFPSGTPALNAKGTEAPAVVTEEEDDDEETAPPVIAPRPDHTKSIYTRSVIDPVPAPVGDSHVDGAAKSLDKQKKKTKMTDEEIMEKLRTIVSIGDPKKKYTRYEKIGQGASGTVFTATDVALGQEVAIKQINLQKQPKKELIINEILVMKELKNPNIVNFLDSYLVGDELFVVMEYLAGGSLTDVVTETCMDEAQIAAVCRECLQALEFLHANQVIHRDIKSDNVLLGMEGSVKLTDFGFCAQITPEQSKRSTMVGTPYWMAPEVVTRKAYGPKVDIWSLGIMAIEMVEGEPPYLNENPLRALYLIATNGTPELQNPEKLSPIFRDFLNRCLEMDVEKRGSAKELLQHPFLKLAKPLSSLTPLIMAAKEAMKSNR
T3 sequence (O15111 whole entry): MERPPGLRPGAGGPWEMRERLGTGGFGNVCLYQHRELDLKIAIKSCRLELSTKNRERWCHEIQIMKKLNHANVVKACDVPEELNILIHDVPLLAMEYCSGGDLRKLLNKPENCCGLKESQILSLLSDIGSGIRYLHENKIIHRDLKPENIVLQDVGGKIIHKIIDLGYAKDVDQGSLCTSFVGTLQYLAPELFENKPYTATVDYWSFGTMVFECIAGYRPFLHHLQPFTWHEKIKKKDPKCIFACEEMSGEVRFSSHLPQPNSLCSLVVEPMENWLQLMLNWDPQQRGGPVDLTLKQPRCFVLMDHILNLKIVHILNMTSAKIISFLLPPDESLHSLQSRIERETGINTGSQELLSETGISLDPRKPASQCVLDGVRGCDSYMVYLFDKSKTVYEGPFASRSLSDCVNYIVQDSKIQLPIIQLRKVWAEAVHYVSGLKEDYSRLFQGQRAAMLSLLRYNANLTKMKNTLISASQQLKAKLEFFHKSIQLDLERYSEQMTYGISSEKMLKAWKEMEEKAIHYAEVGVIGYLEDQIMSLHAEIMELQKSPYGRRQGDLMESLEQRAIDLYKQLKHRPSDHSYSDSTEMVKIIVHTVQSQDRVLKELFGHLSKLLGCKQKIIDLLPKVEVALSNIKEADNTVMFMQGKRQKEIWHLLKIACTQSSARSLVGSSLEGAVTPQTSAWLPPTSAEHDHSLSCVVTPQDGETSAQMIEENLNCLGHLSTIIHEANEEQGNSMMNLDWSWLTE
Sequence of SIK2 (Q9H0K1 whole entry): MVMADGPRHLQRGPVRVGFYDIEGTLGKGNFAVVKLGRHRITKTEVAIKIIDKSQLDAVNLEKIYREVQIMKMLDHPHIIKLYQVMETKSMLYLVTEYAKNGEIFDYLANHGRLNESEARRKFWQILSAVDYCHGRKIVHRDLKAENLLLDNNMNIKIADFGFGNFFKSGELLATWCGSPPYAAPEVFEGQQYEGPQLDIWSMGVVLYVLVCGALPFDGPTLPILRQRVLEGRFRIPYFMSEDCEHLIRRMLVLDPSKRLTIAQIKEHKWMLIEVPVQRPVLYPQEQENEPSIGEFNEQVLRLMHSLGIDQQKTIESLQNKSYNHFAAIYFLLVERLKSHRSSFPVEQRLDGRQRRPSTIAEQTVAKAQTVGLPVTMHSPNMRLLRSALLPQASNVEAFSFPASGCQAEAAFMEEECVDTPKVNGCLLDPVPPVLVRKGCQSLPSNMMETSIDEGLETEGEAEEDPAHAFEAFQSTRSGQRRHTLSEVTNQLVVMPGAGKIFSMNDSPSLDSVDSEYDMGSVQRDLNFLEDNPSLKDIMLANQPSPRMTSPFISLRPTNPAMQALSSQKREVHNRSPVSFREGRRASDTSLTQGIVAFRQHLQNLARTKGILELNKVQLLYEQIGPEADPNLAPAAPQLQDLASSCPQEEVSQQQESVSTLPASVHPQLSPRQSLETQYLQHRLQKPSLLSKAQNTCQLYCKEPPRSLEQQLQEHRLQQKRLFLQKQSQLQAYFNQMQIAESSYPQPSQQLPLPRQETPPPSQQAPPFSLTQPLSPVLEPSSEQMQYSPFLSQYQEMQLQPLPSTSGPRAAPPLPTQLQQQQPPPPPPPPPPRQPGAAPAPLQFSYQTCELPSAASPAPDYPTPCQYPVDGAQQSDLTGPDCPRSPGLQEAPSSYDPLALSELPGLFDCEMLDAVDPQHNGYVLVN
T4 sequence (P11802 whole entry): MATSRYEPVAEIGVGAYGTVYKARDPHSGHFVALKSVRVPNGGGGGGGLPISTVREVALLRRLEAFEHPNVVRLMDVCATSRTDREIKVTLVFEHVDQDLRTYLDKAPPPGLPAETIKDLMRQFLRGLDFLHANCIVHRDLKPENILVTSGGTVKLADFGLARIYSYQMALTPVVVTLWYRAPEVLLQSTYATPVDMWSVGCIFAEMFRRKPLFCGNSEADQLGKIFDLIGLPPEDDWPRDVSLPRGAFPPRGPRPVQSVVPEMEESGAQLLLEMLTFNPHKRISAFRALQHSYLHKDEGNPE
T4 sequence (P24385 whole entry partner): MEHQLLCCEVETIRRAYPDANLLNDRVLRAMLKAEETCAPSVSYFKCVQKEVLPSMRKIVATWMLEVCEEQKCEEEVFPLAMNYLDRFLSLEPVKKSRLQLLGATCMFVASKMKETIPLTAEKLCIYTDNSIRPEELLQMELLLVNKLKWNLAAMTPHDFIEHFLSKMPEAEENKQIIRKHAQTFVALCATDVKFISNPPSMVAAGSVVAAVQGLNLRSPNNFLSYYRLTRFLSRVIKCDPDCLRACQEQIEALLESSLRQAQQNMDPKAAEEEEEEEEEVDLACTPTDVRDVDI
Sequence of CSNK2A2 (P19784 whole entry): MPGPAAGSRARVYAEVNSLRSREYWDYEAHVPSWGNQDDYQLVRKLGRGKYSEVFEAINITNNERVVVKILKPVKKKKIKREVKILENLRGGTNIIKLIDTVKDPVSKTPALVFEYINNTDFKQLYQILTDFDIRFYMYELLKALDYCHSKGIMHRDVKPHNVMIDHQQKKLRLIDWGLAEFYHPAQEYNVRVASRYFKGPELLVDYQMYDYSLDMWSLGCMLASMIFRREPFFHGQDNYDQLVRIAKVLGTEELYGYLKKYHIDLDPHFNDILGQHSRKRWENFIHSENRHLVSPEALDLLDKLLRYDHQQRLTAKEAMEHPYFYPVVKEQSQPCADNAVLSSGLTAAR

`CC#CC(=O)N1CCC[C@H]1c1nc(-c2ccc(C(=O)Nc3ccccn3)cc2)c2c(N)nccn12` [Acalabrutinib] gave a remaining binding at 0.3 µM (PKN2) of 93%, a remaining binding at 0.3 µM (SIK2) of 90% and a remaining binding at 0.3 µM (TAOK2) of 93%. The remaining binding at 0.3 µM (YANK3) was 84%, the remaining binding at 0.3 µM [1] was 94% and the remaining binding at 0.3 µM (CSNK1A1) was 76%. For the same molecule, the remaining binding at 0.3 µM (PIK3CG) was 99% and the remaining binding at 0.3 µM (HIPK1) was 85%.

In the case of `C=CC(=O)N1CCC[C@@H](n2nc(-c3ccc(Oc4ccccc4)cc3)c3c(N)ncnc32)C1` [Ibrutinib], the remaining binding at 0.3 µM (MYO3B) is reported as 80%.

`CC#CC(=O)N1CC[C@@H](n2c(=O)n(-c3ccc(Oc4ccccc4)cc3)c3c(N)ncnc32)C1` [Tirabrutinib] was tested, and the remaining binding at 0.3 µM (PRKG1) was 90%.

`C=CC(=O)N1CCC([C@@H]2CCNc3c(C(N)=O)c(-c4ccc(Oc5ccccc5)cc4)nn32)CC1` [Zanubrutinib] was tested, and the remaining binding at 0.3 µM (CDK5) was 98%, the remaining binding at 0.3 µM (IKK-alpha) was 84% and the remaining binding at 0.3 µM (PRKG2) was 85%. For the same molecule, the remaining binding at 0.3 µM (NEK6) was 88%, the remaining binding at 0.3 µM (CDK4-cyclinD1) was 80% and the remaining binding at 0.3 µM [2] was 83%. It also gave a remaining binding at 0.3 µM (PAK2) of 83%, a remaining binding at 0.3 µM (CDC2L5) of 99% and a remaining binding at 0.3 µM (CSNK2A2) of 100%. For the same molecule, the remaining binding at 0.3 µM (ULK2) was 99%, the remaining binding at 0.3 µM (S6K1) was 88% and the remaining binding at 0.3 µM (PIM3) was 84%. It also gave a remaining binding at 0.3 µM (SIK) of 100%.
